The values that follow are results of earlier work, collected in publication PMC12527922, “Cocaine chemogenetics blunts drug-seeking by synthetic physiology” (Nature, 2025).

For data set [1], the system named is DAT. The note with it: endogenous target; cited from earlier work.
Data set [2] deals with multiple nAChR subtypes. As to conditions: cited from earlier work.

For the compound `COC(=O)[C@H]1[C@@H](OC(=O)c2ccccc2)C[C@@H]2CC[C@H]1N2C` [cocaine], the “range of cocaine affinities for DAT” value in data set [1] is 0.23 to 2.0 µM. In data set [2], the “activity at nAChR subtypes” value is on record as “low-affinity antagonist”.
